The source of these data is patent publication US8080665B2 (Chugai Seiyaku Kabushiki Kaisha, priority 2003, dated 2011).

For orientation: Ki means a dissociation constant, usually derived from enzyme kinetics or from competition with a known ligand. By IC50 is commonly meant the concentration at which inhibition is half-maximal.

One experiment concerns the target T1, hMCD (Homo sapiens, UniProt O95822).
T1 sequence (O95822 40-493): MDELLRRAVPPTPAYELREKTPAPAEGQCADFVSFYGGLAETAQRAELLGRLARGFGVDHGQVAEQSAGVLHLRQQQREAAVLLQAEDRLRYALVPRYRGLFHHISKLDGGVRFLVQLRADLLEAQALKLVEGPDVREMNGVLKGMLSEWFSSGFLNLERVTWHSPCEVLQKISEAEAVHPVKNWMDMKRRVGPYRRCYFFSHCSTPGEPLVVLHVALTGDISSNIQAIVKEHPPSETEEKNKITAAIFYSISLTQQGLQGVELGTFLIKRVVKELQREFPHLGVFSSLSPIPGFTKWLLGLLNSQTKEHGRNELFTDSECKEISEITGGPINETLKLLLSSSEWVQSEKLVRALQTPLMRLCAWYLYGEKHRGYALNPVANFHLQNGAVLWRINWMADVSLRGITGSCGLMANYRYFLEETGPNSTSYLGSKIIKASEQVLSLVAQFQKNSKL
The experiment is described as follows: In vitro MCD inhibitory assay. Type of experiment: biochemical. The following applies: read-out: Ki, in vitro MCD inhibitory activities. The text has this: In Vitro MCD Inhibitory Assay
As shown in eq. 1-3, the establishment of the kinetic equilibrium between malate/NAD and oxaloacetate/NADH was catalyzed by malic dehydrogenase (eq. 2). […] The accumulation of NADH can be continuously followed by monitoring the increase of fluorescence emission at 460 nm on a fluorescence plate reader. The fluorescence plate reader was calibrated using the authentic acetyl-CoA from Sigma. For a typical 96-well plate assay, the increase in the fluorescence emission (λex=360 nm, λem=460 nm, for NADH) in each well was used to calculate the initial velocity of hMCD. Each 50 μL assay contained 10 mM phosphate buffered saline (Sigma), pH 7.4, 0.05% Tween-20, 25 mM K2HPO4—KH2PO4 (Sigma), 2 mM Malate (Sigma), 2 mM NAD (Boehringer Mannheim), 0.786 units of MD (Roche Chemicals), 0.028 unit of CS (Roche Chemicals), 5-10 nM hMCD, and varying amounts of MCA substrate. Assays were initiated by the addition of MCA, and the rates were corrected for the background rate determined in the absence of hMCD.
For `CC(C)N(C(=O)NC1CCN(C(=O)OCc2ccccc2)CC1)c1ccc2nc(S)sc2c1` [CBM-000302130], the Ki was 11 nM. As to `CC(C)N(C(=O)NC1CCN(CCCC(F)(F)F)CC1)c1ccc2nc(S)sc2c1` [CBM-000302182], the Ki was determined as 80 nM. Regarding `CC(C)N(C(=O)NC1CCN(S(=O)(=O)C(C)C)CC1)c1ccc2nc(S)sc2c1` [CBM-000302215, 1-Isopropyl-1-(2-mercapto-benzothiazol-6-yl)-3-[1-(propane-2-sulfonyl)-piperidin-4-yl]-urea], the Ki stood at 19.1 nM.

On to `CCCCOc1ccc(C(=O)N2CCC(NC(=O)N(c3ccc4nc(S)sc4c3)C(C)C)CC2)cc1` [CBM-000302216], for which the Ki was 88.1 nM. For `CC(C)N(C(=O)NC1CCN(C(=O)c2ccc(C(F)(F)F)cc2)CC1)c1ccc2nc(S)sc2c1` [CBM-000302217], the Ki is 42.3 nM. With `CC(C)N(C(=O)NC1CCN(C(=O)COc2ccccc2)CC1)c1ccc2nc(S)sc2c1` [CBM-000302218], the Ki came to 7.4 nM. Consider `CC(C)N(C(=O)NC1CCN(C(=O)Nc2ccc(C(F)(F)F)cc2)CC1)c1ccc2nc(S)sc2c1` [CBM-000302219], for which the Ki was determined as 30.5 nM. On the same count and under the same terms, the value for `CC(C)N(C(=O)NC1CCN(C(=O)CCc2ccccc2)CC1)c1ccc2nc(S)sc2c1` [CBM-000302220] was 20.4 nM; that for `CCCNC(=O)N1CCC(NC(=O)N(c2ccc3nc(S)sc3c2)C(C)C)CC1` [CBM-000302274] was 40.6 nM. As for `CC(C)N(C(=O)NC1CCN(C(=O)CCC2CCCC2)CC1)c1ccc2nc(S)sc2c1` [CBM-000302275], the Ki came to 22.4 nM. The same measure, in the same setting: the value for `CCCCS(=O)(=O)N1CCC(NC(=O)N(c2ccc3nc(S)sc3c2)C(C)C)CC1` [CBM-000302276] was 0.7 nM. Take `CC(C)N(C(=O)NC1CCN(S(=O)(=O)c2ccccc2)CC1)c1ccc2nc(S)sc2c1` [CBM-000302277]: the Ki amounted to 2.8 nM. Take `CC(C)N(C(=O)NC1CCN(S(=O)(=O)c2ccc(OC(F)(F)F)cc2)CC1)c1ccc2nc(S)sc2c1` [CBM-000302278]: the Ki was determined as 105 nM. The same measure, in the same setting: the figure for `CC(C)N(C(=O)NC1CCN(S(=O)(=O)c2ccc(C(F)(F)F)cc2)CC1)c1ccc2nc(S)sc2c1` [CBM-000302279] is 61.6 nM; for `CC(C)N(C(=O)NC1CCN(S(=O)(=O)c2cccc(C(F)(F)F)c2)CC1)c1ccc2nc(S)sc2c1` [CBM-000302280] it is 2.6 nM. In the case of `CC(C)CCC(=O)N1CCC(NC(=O)N(c2ccc3nc(S)sc3c2)C(C)C)CC1` [CBM-000302313, 1-isopropyl-1-(2-mercapto-benzothiazole-6-yl)-3-[1-(4-methyl-pentanolyl)-piperidin-4-yl]-urea], the Ki is 23.5 nM. `CCCC(=O)N1CCC(NC(=O)N(c2ccc3nc(S)sc3c2)C(C)C)CC1` [CBM-000302314]: the Ki is 58.5 nM.

With `COC(=O)CCC(=O)N1CCC(NC(=O)N(c2ccc3nc(S)sc3c2)C(C)C)CC1` [CBM-000302316], the Ki was 99.6 nM. For the compound `CC(C)N(C(=O)NC1CCN(S(=O)(=O)c2cccc(Cl)c2)CC1)c1ccc2nc(S)sc2c1` [CBM-000302342], the Ki was found to be 0.7 nM. Still for that read-out and setting: the figure for `CC(C)N(C(=O)NC1CCN(S(=O)(=O)c2cccc(C#N)c2)CC1)c1ccc2nc(S)sc2c1` [CBM-000302343] is 3.8 nM. On to `CC(C)N(C(=O)NC1CCN(S(=O)(=O)c2ccc(C(C)(C)C)cc2)CC1)c1ccc2nc(S)sc2c1` [CBM-000302344], for which the Ki worked out at 133 nM. Still for that read-out and setting: the value for `CC(C)N(C(=O)NC1CCN(C(=O)c2ccc(F)cc2)CC1)c1ccc2nc(S)sc2c1` [CBM-000302348] was 40.7 nM.

Consider `COc1ccc(C(=O)N2CCC(NC(=O)N(c3ccc4nc(S)sc4c3)C(C)C)CC2)cc1` [CBM-000302359], for which the Ki was found to be 7.2 nM. Same read-out and setting: the value for `CC(C)N(C(=O)NC1CCN(C(=O)c2ccco2)CC1)c1ccc2nc(S)sc2c1` [CBM-000302360] was 24 nM; that for `CC(C)N(C(=O)NC1CCN(c2ccc(OC(F)(F)F)cc2)CC1)c1ccc2nc(S)sc2c1` [CBM-000302361] was 87.2 nM; that for `CC(C)Oc1ccc(S(=O)(=O)N2CCC(NC(=O)N(c3ccc4nc(S)sc4c3)C(C)C)CC2)cc1` [CBM-000302368] was 624 nM.

For the compound `CC(C)N(C(=O)NC1CCN(S(=O)(=O)c2cccc(F)c2)CC1)c1ccc2nc(S)sc2c1` [CBM-000302369], the inhibition constant Ki amounted to 2.8 nM. `CCCc1ccc(S(=O)(=O)N2CCC(NC(=O)N(c3ccc4nc(S)sc4c3)C(C)C)CC2)cc1` [CBM-000302384]: the Ki was determined as 66.1 nM. The same measure, in the same setting: the value for `COc1cccc(S(=O)(=O)N2CCC(NC(=O)N(c3ccc4nc(S)sc4c3)C(C)C)CC2)c1` [CBM-000302386] was 1.3 nM. For `CC(C)c1ccc(S(=O)(=O)N2CCC(NC(=O)N(c3ccc4nc(S)sc4c3)C(C)C)CC2)cc1` [CBM-000302387], the Ki amounted to 125 nM. As for `CC(=O)c1ccc(S(=O)(=O)N2CCC(NC(=O)N(c3ccc4nc(S)sc4c3)C(C)C)CC2)cc1` [CBM-000302389], the Ki worked out at 84.3 nM. For the compound `CCc1ccc(S(=O)(=O)N2CCC(NC(=O)N(c3ccc4nc(S)sc4c3)C(C)C)CC2)cc1` [CBM-000302404], the Ki was determined as 27.5 nM. For the compound `CC(C)N(C(=O)NC1CCN(S(=O)(=O)Cc2ccccc2)CC1)c1ccc2nc(S)sc2c1` [CBM-000302405], the Ki stood at 7.8 nM. In the case of `CC(C)N(C(=O)NC1CCN(S(=O)(=O)c2ccc(F)c(Cl)c2)CC1)c1ccc2nc(S)sc2c1` [CBM-000302406], the Ki was 1.4 nM. The same measure, in the same setting: the value for `COc1ccc(S(=O)(=O)N2CCC(NC(=O)N(c3ccc4nc(S)sc4c3)C(C)C)CC2)cc1` [CBM-000302407] was 17.5 nM; that for `CC(C)N(C(=O)NC1CCN(S(=O)(=O)c2ccc(C#N)cc2)CC1)c1ccc2nc(S)sc2c1` [CBM-000302424] was 123 nM. Consider `CC(C)N(C(=O)NC1CCN(S(=O)(=O)c2ccc(F)cc2)CC1)c1ccc2nc(S)sc2c1` [CBM-000302425], for which the Ki amounted to 1.4 nM. In the case of `CC(C)N(C(=O)NC1CCN(S(=O)(=O)c2cnc(Cl)c(Br)c2)CC1)c1ccc2nc(S)sc2c1` [CBM-000302426], the Ki was 19.3 nM.

A further experiment relates to Isolated Working Rat Hearts. The experiment is described as follows: Glucose oxidation in isolated working rat hearts.
Conditions: not given
The procedure:
Isolated Working Rat Heart Assay Protocol
Isolated working hearts from male Sprague-Dawley rats (300-350 g) are subjected to a 60-minute aerobic perfusion period. The working hearts are perfused with 95% O2, 5% CO2 with a modified Krebs-Henseleit solution containing 5 mM glucose; 100 μU/mL insulin; 3% fatty acid-free BSA; 2.5 mM free Ca^2+, and 0.4 to 1.2 mmol/L palmitate (Kantor et al., Circulation Research 86:580-588 (2000)). The test compound is added 5 minutes before the perfusion period. DMSO (0.05%) is used as control.
Measurement of Glucose Oxidation Rates
Samples were taken at 10-minute intervals for measurements of experimental parameters. Glucose oxidation rates are determined by the quantitative collection of ^14CO2 produced by hearts perfused with buffer containing [U14]-Glucose (R. Barr and G. Lopaschuk, in “Measurement of cardiovascular function”, McNeill, J. H. ed., Chapter 2, CRC press, New York (1997)). After the perfusion, the ^14CO2 from the perfusae is subsequently released by injecting 1 mL of perfusate into sealed test tube containing 1 mL of 9NH2SO4. The tube was sealed with a rubber stopper attached to a scintillation vial containing a piece of filter papers saturated with 300 μl of hyamine hydroxide. The scintillation vials with filter papers were then removed and Ecolite Scintillation Fluid added. Samples were counted by standard procedures as described above. Average rates of glucose oxidation for each phase of perfusion are expressed as μmol/min/g dry wt as described above.
Active compounds are characterized by an increase in glucose oxidation and/or decrease in fatty acid oxidation as compared to the control experiments (DMSO). The compounds that caused statistically significant increases in glucose oxidation and/or decrease in fatty acid oxidation are considered to be active. Statistical significance was calculated using the Student's t test for paired or unpaired samples, as appropriate. The results with P<0.05 are considered to be statistically significant.
Take `CC(C)N(C(=O)NC1CCN(C(=O)COc2ccccc2)CC1)c1ccc2nc(S)sc2c1` [CBM-000302218]: the “GOX (%), glucose oxidation rate relative to DMSO (100%)” value stood at 236%. Still for that read-out and setting: the value for `CCCCS(=O)(=O)N1CCC(NC(=O)N(c2ccc3nc(S)sc3c2)C(C)C)CC1` [CBM-000302276] was 310%; that for `CC(C)N(C(=O)NC1CCN(S(=O)(=O)c2cccc(C(F)(F)F)c2)CC1)c1ccc2nc(S)sc2c1` [CBM-000302280] was 683%; that for `CN(C(=O)NC1CCN(S(=O)(=O)c2ccccc2)CC1)c1ccc2nc(S)sc2c1` [CBM-000302281, 3-(1-Benzenesulfonyl-piperidin-4-yl)-1-(2-mercapto-benzothiazol-6-yl)-1-methyl-urea] was 190%. As for `CC(C)N(C(=O)NC1CCN(S(=O)(=O)c2cccc(Cl)c2)CC1)c1ccc2nc(S)sc2c1` [CBM-000302342], the “GOX (%), glucose oxidation rate relative to DMSO (100%)” value came to 285%. For `CC(C)N(C(=O)NC1CCN(S(=O)(=O)c2cccc(C#N)c2)CC1)c1ccc2nc(S)sc2c1` [CBM-000302343], the “GOX (%), glucose oxidation rate relative to DMSO (100%)” value is listed as 177%.

The test system of another experiment is muscle (M) isoform of CPT-I.
Assay: not given
Particulars: read-out: IC50 of malonyl-CoA inhibition of CPT-I; cited from earlier work.
Take `CC(C)(COP(=O)(O)OP(=O)(O)OC[C@H]1O[C@@H](n2cnc3c(N)ncnc32)[C@H](O)[C@@H]1OP(=O)(O)O)[C@@H](O)C(=O)NCCC(=O)NCCSC(=O)CC(=O)O` [Malonyl-CoA]: the concentration for half-maximal inhibition (IC50) is 30 nM.

Another experiment has as its system breast carcinoma cells.
Assay: not given
Particulars: cited from earlier work.
As to `CCCCCCCCCCCCCCOc1ccc(C(=O)O)o1` [TOFA, 5-(tetradecyloxy)-2-furoic acid], the “malonyl-CoA level, % of the control” value is reported as 60%.
